Data on four compounds can be found in patent US20090203734A1, “F1F0-ATPASE INHIBITORS AND RELATED METHODS” (The Regents of the University of Michigan, priority 2008, published 2009).

Assay [1] has as its target T1, bovine F1Fo-ATPase (Bos taurus, UniProt P13621).
T1 construct: bovine F1Fo-ATPase present in submitochondrial particles (SMPs); from tissue
The experiment in a line: ATP hydrolysis by F1Fo-ATPase in bovine submitochondrial particles (SMPs). Type of assay: biochemical.

Assay [2] concerns the target T1, bovine F1Fo-ATPase. As to the kind of experiment: ATP synthesis by F1Fo-ATPase in bovine submitochondrial particles (SMPs). Type of assay: biochemical.
Assay [3] has as its system Ramos B cells. As to the kind of experiment: Early superoxide (O2-, ROS) response in Ramos B cells. The class given is cell-based. The following applies: Homo sapiens, O2- response 1 h following incubation with drug. Here is the method:
(§1) Since an early mitochondrial superoxide (O2^−) mediates apoptosis induced by Bz-423, the O2^− response of cells 1 h following incubation with drug was examined, as well as cell death at 24 h, as previously described (see, e.g., Blatt, N. B., et al., 2002 J Clin Invest 110, 1123-1132; incorporated herein by reference in its entirety).

In assay [4] the test system is Jurkat T cells. As to the kind of experiment: Early superoxide (O2-, ROS) response in Jurkat T cells. The class given is cell-based. As to conditions: Homo sapiens, O2- response 1 h following incubation with drug. Here is the method: as §1
In assay [5] the test system is Ramos B cells. The experiment in a line: Cell death in Ramos B cells. The class given is cell-based. As to conditions: Homo sapiens, cell death at 24 h. Here is the method:
as §1

The subject of assay [6] is Jurkat T cells. As to the kind of experiment: Cell death in Jurkat T cells. The class given is cell-based. As to conditions: Homo sapiens, cell death at 24 h. As to the method: as §1
Setting [7] is: bovine SMPs, drug 0-300 μM, read-out: ATPase activity EC50, Hydrolysis.
[8] abbreviates: read-out: ATPase activity EC50, Synthesis.

As a reminder, the EC50 is the concentration needed to bring the measured effect to its halfway point. Consider `CN1C(=O)C(Cc2ccc3ccccc3c2)N=C(c2ccc(O)cc2)c2cc(Cl)ccc21` (stereo not drawn) [Bz-423], for which the figures for the EC50 in assay [1] (setting [7]) and in assay [2] (setting [8]) were 8.9 µM and 5.5 µM, respectively.
The like results for `CN1C(=O)CN=C(c2ccc(Cl)cc2)c2cc(Cl)ccc21` [Compound 4-Cl-Dz, 4-chlorodiazepam] were, in that order, greater than 300 µM and 210 µM.
`O=C1CN=C(c2ccccc2Cl)c2cc([N+](=O)[O-])ccc2N1` [Cz, clonazepam]: the EC50 stood at 240 µM in assay [1] (setting [7]) and 120 µM in assay [2] (setting [8]).
As to `CN1C(=O)CN=C(c2ccccc2)c2cc(Cl)ccc21` [Dz, diazepam], the EC50 is greater than 300 µM in assay [1]; 210 µM in assay [2] (ATPase activity EC50, Synthesis); 170 µM in assay [3]; 200 µM in assay [4]; 250 µM in assay [5]; 170 µM in assay [6].
